{
  "source": "patent US5071983A",
  "about": "“Therapeutic nucleosides” (priority 1989, dated 1991)",
  "key": {"HIV [1]": {"system": "HIV", "assay": "Antiviral activity against HIV (method of Mitsuya et al.)", "format": "cell-based", "details": "Human immunodeficiency virus 1; for IC50: HIV; for minimal effective concentration: no % protection printed, read-out: Concentration at which found to have activity against HIV", "procedure": "The compounds of Examples 1-6 were tested for activity against HIV generally in accordance with the method described by Mitsuya et al, Proc. Nat. Acad. Sci, USA Vol 82, pp 7096-7100, October 1985 and found to have activity against HIV at the following concentrations: […]"}, "[2]": {"assay": "Urinary and fecal excretion after oral dosing of rats", "format": "in vivo, male Sprague Dawley rats", "details": "rat", "procedure": "(§1) Using an intragastric needle, sexually mature, male Sprague Dawley rats were given single 25 mg/kg oral doses of DDC or equimolar doses of DDC Congeners.\nFor urinary and fecal excretion studies, each compound was administered to two animals, which were housed separately in metabolic cages and urine and feces were separated and collected during the 0-24, 24-48 and 48-72 hour intervals post dose. To prevent bacterial growth, sodium azide was placed in the urine collection vessel so that the final concentration, after 24 hours of urine collection, would be about 0.02%. Feces were weighed, homogenized in 9 volumes (9 ml/g) deionized water and centrifuged (12,000×g, 4° C., 30 min). Prior to high-performance liquid chromatographic (HPLC) analysis for drug and metabolite content, samples of the fecal homogenate supernatants and urines were filtered (0.22 μm filters).\n(§2) A dual-pump HPLC system was used to analyse samples of urine, feces, plasma and brain for DDC and its congeners and their metabolites. The solvent for pump A was 25 mM phosphoric acid, buffered to pH 7.2 with ammonium hydroxide. The solvent for pump B was 60% acetonitrile in solvent A. Samples were injected onto an Adsorbospher phenyl column (4.6×250 mm, 5 micron spherical packing) and eluted at a flow rate of 1 ml/minute using linear increases in solvent B from 0 to 15% over 15 minutes and from 15 to 100% over 21 minutes, with 5 minute purge (100% B) and 15 minute restore (0% B) period between injections. The absorbance of the column effluent was monitored at 273 and 254 nm. Concentrations of compounds were determined by comparing appropriate peak areas to standard curves obtained from analysis of aqueous solutions of authentic standards. Compounds were identified by comparing retention times and ratios of peak areas at 273 and 254 nm to those of authentic standards."}, "[3]": {"assay": "Concomitant plasma and brain levels of DDC and its congeners after oral dosing of rats", "format": "in vivo, male Sprague Dawley rats", "details": "rat; for Levels of DDC in plasma and brain relative to a dose of DDC, 0.5 hour: 0.5 hour post dose; for Plasma and brain concentrations of DDC relative to a dose of DDC, 2 hours: 2 hours post dose; for Amounts of analogues still containing the N4-amide in plasma and brain / Plasma and brain levels of DDC relative to DDC dosing: oral dose equivalent to 25 mg DDC, 0.5 and 2 hours", "procedure": "as §1\nFor concomitant plasma and brain level studies, each compound was administered to two animals. Animals were sacrificed by decapitation, one of each pair at 30 minutes and the other at 2 hours post dose. Blood was collected into heparinized cups and plasma was prepared. Samples of each plasma were ultrafiltered (Amicon Centrifree Micropartition Systems) prior to HPLC analysis. Brains were removed, weighed, homogenized in 2 volumes (2 ml/g) deionized water and centrifuged (12,000×g 4° C., 30 min). The resulting supernatants were filtered (0.22 μm filters) prior to HPLC analysis.\nas §2"}, "HIV [4]": {"system": "HIV", "details": "known from EP 0216511; cited from earlier work"}, "[5]": {"details": "in vivo, po, 25 mg/kg, 1440 min"}},
  "note": "Several values for one entry are separate records, joined by “and”; a condition that tells them apart may be missing. Equal values may be shown once. Read-outs that look alike come from different tables or passages of the source.",
  "data": [
    {"smiles": "Nc1ccn([C@H]2CC[C@@H](CO)O2)c(=O)n1", "note": "[DDC, 2',3'-Dideoxycytidine, reference compound]", "values": [
      {"measurement": "inhibition at 16 µM", "setting": "HIV [1]; 16 μM, read-out: % Protection", "result": 99, "unit": "%"},
      {"measurement": "dose excreted at 24 h", "setting": "[2]; feces, po, 25 mg/kg, rat 1, oral 25 mg/kg, compound detected: DDC, read-out: Percent Dose Excreted as DDC, 0-24 hr Feces", "result": 12, "unit": "%"},
      {"measurement": "dose excreted", "setting": "[2]; feces, po, 25 mg/kg, two rats, oral 25 mg/kg, feces, DDC, read-out: Average fecal excretion of parent compound", "result": 28.1, "unit": "%"},
      {"measurement": "Average fecal excretion of 2',3'-dideoxyuridine", "setting": "[2]; in vivo, po, 25 mg/kg", "result": "1.9 % of the dose"},
      {"measurement": "Compound Detected, 24-72 hr Feces", "setting": "[2]; in vivo, po, 25 mg/kg", "result": "none"},
      {"measurement": "Gastrointestinal absorption", "setting": "[2]; in vivo, po, 25 mg/kg", "result": "limited gastrointestinal absorption"},
      {"measurement": "Percent Dose Excreted as ddU, 0-24 hr Feces", "setting": "[2]; [5]", "result": 1.1, "unit": "Percent Dose"},
      {"measurement": "Percent Dose Excreted as ddU, 0-24 hr Urine (second entry so headed)", "setting": "[2]; [5]", "result": 2.6, "unit": "Percent Dose"},
      {"measurement": "Percent Dose Excreted as DDC, 0-24 hr Urine", "setting": "[2]; single oral dose 25 mg/kg DDC or equimolar, individual rats, compound detected: DDC, 25 mg/kg, 1440 min", "result": 31.6, "unit": "Percent Dose"},
      {"measurement": "Percent Dose Excreted as DDC, 24-72 hr Urine", "setting": "[2]; single oral dose 25 mg/kg DDC or equimolar, individual rats, compound detected: DDC, 25 mg/kg, 4320 min", "result": "6.23 Percent Dose and 1.5 Percent Dose"},
      {"measurement": "dose excreted at 24 h", "setting": "[2]; urine, po, 25 mg/kg, rat 2, oral 25 mg/kg DDC, compound detected: DDC, read-out: Percent Dose Excreted as DDC, 0-24 hr Urine (second entry so headed)", "result": 32.2, "unit": "%"},
      {"measurement": "dose excreted at 24 h", "setting": "[2]; urine, po, 25 mg/kg, single oral dose 25 mg/kg DDC or equimolar, individual rats, compound detected: DDC, read-out: Percent Dose Excreted as DDC, 0-24 hr Urine", "result": 46.6, "unit": "%"},
      {"measurement": "dose excreted at 72 h", "setting": "[2]; urine, po, 25 mg/kg, two rats, oral 25 mg/kg DDC or equimolar, urine 72 hours, read-out: Average urinary excretion as DDC", "result": 43, "unit": "%"},
      {"measurement": "Absorption and hydrolysis (plasma level data)", "setting": "[3]; oral", "result": "absorption of DDC although incomplete, may be more prolonged"},
      {"measurement": "Anti-HIV activity", "setting": "HIV [4]", "result": "potent anti-HIV activity"}
    ]},
    {"smiles": "CCC(=O)OC[C@@H]1CC[C@H](n2ccc(N)nc2=O)O1", "note": "[Example 3, 2',3'-Dideoxy-5'-O-propionylcytidine]", "values": [
      {"measurement": "IC50", "setting": "HIV [1]", "result": 1.6, "unit": "µM"},
      {"measurement": "Levels of DDC in plasma and brain relative to a dose of DDC, 0.5 hour", "setting": "[3]; oral", "result": "higher levels of DDC in the plasma and brain"},
      {"measurement": "Plasma and brain concentrations of DDC relative to a dose of DDC, 2 hours", "setting": "[3]; oral", "result": "lower than those observed after a dose of DDC"}
    ]},
    {"smiles": "CC(C)(C)C(=O)Nc1ccn([C@H]2CC[C@@H](COC(=O)C(C)(C)C)O2)c(=O)n1", "note": "[Example 4, 2',3'-dideoxy-N^4,5'-O-dipivaloylcytidine]", "values": [
      {"measurement": "minimal effective concentration", "setting": "HIV [1]", "result": 25, "unit": "µM"},
      {"measurement": "Amounts of analogues still containing the N4-amide in plasma and brain", "setting": "[3]", "result": "Much higher amounts"},
      {"measurement": "Plasma and brain levels of DDC relative to DDC dosing", "setting": "[3]", "result": "lower than what was observed after dosing with DDC"}
    ]},
    {"smiles": "CC(C)(C)C(=O)Nc1ccn([C@H]2CC[C@@H](CO)O2)c(=O)n1", "note": "[Example 5, 2',3'-dideoxy-N^4-pivaloylcytidine]", "values": [
      {"measurement": "inhibition at 100 µM", "setting": "HIV [1]; 100 μM, read-out: % Protection", "result": 42, "unit": "%"},
      {"measurement": "Amounts of analogues still containing the N4-amide in plasma and brain", "setting": "[3]", "result": "Much higher amounts"},
      {"measurement": "Plasma and brain levels of DDC relative to DDC dosing", "setting": "[3]", "result": "lower than what was observed after dosing with DDC"}
    ]},
    {"smiles": "CCC(=O)Nc1ccn([C@H]2CC[C@@H](CO)O2)c(=O)n1", "note": "[Example 2, 2',3'-Dideoxy-N^4-propionylcytidine]", "values": [
      {"measurement": "IC50", "setting": "HIV [1]", "result": 36, "unit": "µM"}
    ]},
    {"smiles": "CCC(=O)Nc1ccn([C@H]2CC[C@@H](COC(=O)CC)O2)c(=O)n1", "note": "[Example 1, 2',3'-Dideoxy-N^4, 5'-O-dipropionylcytidine]", "values": [
      {"measurement": "minimal effective concentration", "setting": "HIV [1]", "result": 25, "unit": "µM"},
      {"measurement": "Amounts of analogues still containing the N4-amide in plasma and brain", "setting": "[3]", "result": "Much higher amounts"},
      {"measurement": "Plasma and brain levels of DDC relative to DDC dosing", "setting": "[3]", "result": "lower than what was observed after dosing with DDC"}
    ]},
    {"smiles": "CC(C)(C)C(=O)OC[C@@H]1CC[C@H](n2ccc(N)nc2=O)O1", "note": "[Example 6, 2',3'-Dideoxy-5'-O-pivaloylcytidine]", "values": [
      {"measurement": "inhibition at 6.4 µM", "setting": "HIV [1]; 6.4 μM, read-out: % Protection", "result": 88, "unit": "%"},
      {"measurement": "Increase of oral bioavailability of DDC", "setting": "[2]; in vivo, po", "result": 2.5, "unit": "fold"},
      {"measurement": "Levels of DDC in plasma and brain relative to a dose of DDC, 0.5 hour", "setting": "[3]; oral", "result": "higher levels of DDC in the plasma and brain"},
      {"measurement": "Plasma and brain concentrations of DDC relative to a dose of DDC, 2 hours", "setting": "[3]; oral", "result": "lower than those observed after a dose of DDC"}
    ]}
  ]
}
